According to US11130756B2, “[1,2,4]Triazolo[4,3-A]pyridinyl substituted indole compounds” (BRISTOL-MYERS SQUIBB COMPANY, priority 2017, dated 2021):

Tests used:
Assay type in all cases: cell-based
human TLR9 = molecular target: T1, human TLR9 (Homo sapiens, UniProt Q9NR96); experiment: TLR9 inhibition reporter assay (HEK-Blue, SEAP); conditions: HEK-Blue cells overexpressing human TLR9, ODN2006 5 nM, 22 hour incubation
T1 construct: host or cells: HEK-Blue cells
T1 sequence (Q9NR96 26-1032): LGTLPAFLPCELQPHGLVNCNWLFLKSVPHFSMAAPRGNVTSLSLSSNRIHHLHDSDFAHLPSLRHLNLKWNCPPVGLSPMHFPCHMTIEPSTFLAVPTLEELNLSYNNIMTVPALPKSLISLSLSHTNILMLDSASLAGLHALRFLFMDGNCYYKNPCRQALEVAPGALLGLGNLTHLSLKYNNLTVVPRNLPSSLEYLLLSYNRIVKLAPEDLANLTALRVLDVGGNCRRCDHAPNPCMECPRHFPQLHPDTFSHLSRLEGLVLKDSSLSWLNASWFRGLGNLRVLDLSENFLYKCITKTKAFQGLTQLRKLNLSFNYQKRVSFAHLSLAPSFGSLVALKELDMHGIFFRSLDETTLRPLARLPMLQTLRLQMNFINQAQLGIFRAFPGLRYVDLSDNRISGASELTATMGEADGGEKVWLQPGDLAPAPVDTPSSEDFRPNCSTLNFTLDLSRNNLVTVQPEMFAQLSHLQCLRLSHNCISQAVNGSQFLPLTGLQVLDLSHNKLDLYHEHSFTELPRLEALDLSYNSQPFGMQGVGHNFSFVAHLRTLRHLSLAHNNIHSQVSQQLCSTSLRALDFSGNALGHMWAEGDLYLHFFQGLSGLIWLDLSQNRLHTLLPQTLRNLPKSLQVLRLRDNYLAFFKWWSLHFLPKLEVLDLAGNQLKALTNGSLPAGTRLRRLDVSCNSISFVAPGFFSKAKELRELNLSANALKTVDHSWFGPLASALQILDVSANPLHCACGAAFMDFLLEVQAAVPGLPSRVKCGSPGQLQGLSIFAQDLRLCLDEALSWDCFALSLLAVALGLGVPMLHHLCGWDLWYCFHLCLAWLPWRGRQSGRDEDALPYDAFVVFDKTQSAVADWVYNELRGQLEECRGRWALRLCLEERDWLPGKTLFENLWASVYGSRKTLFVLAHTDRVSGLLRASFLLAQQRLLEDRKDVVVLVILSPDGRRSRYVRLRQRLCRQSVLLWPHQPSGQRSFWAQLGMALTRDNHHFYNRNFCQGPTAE
Protocol: (§1) TLR7/8/9 Inhibition Reporter Assays
(§2) HEK-Blue™-cells (Invivogen) overexpressing human TLR7, TLR8 or TLR9 receptors were used for screening inhibitors of these receptors using an inducible SEAP (secreted embryonic alkaline phosphatase) reporter gene under the control of the IFN-β minimal promoter fused to five NF-κB and AP-1-binding sites. Briefly, cells are seeded into Greiner 384 well plates (15000 cells per well for TLR7, 20,000 for TLR8 and 25,000 for TLR9) and then treated with test compounds in DMSO to yield a final dose response concentration range of 0.05 nM-50 μM. After a 30 minute compound pre-treatment at room temperature, the cells are then stimulated with a TLR7 ligand (gardiquimod at a final concentration of 7.5 μM), TLR8 ligand (R848 at a final concentration of 15.9 μM) or TLR9 ligand (ODN2006 at a final concentration of 5 nM) to activate NF-κB and AP-1 which induce the production of SEAP. After a 22 hour incubation at 37° C., 5% CO2, SEAP levels are determined with the addition of HEK-Blue™ Detection reagent (Invivogen), a cell culture medium that allows for detection of SEAP, according to manufacturer's specifications. The percent inhibition is determined as the % reduction in the HEK-Blue signal present in wells treated with agonist plus DMSO alone compared to wells treated with a known inhibitor.

human TLR7 = molecular target: T2, human TLR7 (Homo sapiens, UniProt Q9NYK1); experiment: TLR7 inhibition reporter assay (HEK-Blue, SEAP); conditions: HEK-Blue cells overexpressing human TLR7, gardiquimod 7.5 μM, 22 hour incubation
T2 construct: host or cells: HEK-Blue cells
T2 sequence (Q9NYK1 27-1049): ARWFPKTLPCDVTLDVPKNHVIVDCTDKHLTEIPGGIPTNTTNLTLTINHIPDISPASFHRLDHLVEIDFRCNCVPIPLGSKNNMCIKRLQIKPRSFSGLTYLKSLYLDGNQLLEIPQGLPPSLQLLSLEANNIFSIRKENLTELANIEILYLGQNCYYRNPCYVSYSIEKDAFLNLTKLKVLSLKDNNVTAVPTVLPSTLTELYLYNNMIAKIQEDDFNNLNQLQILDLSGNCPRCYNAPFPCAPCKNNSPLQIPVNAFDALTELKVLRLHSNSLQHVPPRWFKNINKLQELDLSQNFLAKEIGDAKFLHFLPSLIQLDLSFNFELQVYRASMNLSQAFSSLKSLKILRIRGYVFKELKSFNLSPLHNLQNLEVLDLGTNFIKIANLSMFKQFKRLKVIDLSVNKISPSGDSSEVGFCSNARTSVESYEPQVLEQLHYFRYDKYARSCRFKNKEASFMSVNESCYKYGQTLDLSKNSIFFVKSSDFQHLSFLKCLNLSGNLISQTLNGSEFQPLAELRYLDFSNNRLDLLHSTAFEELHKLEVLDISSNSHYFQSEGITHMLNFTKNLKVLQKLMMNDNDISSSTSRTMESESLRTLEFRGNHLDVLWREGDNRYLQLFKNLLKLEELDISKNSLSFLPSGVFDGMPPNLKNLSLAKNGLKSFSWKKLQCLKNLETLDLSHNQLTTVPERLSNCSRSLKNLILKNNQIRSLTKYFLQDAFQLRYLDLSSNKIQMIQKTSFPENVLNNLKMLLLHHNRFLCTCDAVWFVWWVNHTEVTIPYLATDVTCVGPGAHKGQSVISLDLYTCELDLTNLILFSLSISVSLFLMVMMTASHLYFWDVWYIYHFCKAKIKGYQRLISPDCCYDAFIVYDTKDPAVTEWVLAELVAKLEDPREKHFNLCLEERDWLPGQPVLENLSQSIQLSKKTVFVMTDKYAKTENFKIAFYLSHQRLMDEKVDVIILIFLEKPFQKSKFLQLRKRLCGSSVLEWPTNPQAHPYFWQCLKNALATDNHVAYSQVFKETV
Protocol: as §1, §2

human TLR8 = molecular target: T3, human TLR8 (Homo sapiens, UniProt Q9NR97); experiment: TLR8 inhibition reporter assay (HEK-Blue, SEAP); conditions: HEK-Blue cells overexpressing human TLR8, R848 15.9 μM, 22 hour incubation
T3 construct: host or cells: HEK-Blue cells
T3 sequence (Q9NR97 27-1041): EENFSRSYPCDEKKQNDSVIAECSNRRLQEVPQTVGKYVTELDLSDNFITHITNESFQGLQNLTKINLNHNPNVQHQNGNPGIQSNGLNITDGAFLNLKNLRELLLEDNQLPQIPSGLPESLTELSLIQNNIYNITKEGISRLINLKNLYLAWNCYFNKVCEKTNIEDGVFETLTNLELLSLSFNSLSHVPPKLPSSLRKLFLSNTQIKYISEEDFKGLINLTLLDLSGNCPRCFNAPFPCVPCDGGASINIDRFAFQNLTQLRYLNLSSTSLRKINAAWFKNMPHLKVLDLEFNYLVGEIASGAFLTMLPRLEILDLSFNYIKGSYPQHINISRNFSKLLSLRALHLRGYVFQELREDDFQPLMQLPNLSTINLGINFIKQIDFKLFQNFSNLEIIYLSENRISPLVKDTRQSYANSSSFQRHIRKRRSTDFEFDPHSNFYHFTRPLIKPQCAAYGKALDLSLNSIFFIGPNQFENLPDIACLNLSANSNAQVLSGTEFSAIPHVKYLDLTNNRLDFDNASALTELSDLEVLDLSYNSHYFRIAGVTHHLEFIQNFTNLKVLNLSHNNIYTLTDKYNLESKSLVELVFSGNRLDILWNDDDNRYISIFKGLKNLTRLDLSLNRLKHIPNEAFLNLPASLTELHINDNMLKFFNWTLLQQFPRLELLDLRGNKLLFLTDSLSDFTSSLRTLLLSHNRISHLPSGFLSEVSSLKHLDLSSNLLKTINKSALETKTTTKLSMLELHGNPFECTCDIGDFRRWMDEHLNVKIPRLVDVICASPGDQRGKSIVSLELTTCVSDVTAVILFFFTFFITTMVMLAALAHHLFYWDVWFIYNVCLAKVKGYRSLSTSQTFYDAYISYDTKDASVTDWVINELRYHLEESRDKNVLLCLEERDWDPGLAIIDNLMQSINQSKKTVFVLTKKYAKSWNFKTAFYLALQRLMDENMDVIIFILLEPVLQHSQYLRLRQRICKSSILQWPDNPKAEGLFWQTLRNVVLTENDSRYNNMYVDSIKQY
Protocol: as §1, §2

Structure (SMILES)	IC50 (human TLR9) [nM]	IC50 (human TLR7) [nM]	IC50 (human TLR8) [nM]
Cc1c(-c2[nH]c3ccc(C4CCN(CCN5CCCS5(=O)=O)CC4)cc3c2C(C)C)cn2cnnc2c1C [Example 52, 2-(2-(4-(2-(7,8-dimethyl-[1,2,4]triazolo[4,3-a]pyridin-6-yl)-3-isopropyl-1H-indol-5-yl)piperidin-1-yl)ethyl)isothiazolidine 1,1-dioxide]	1280	1.5	5.8
Cc1c(-c2[nH]c3ccc(C4C[C@H]5CC[C@@H](C4)N5CC(=O)N(C)C)cc3c2C(C)C)cn2cnnc2c1C (single isomer, unassigned) [Example 119]	1020	12.9	103
CC(C)c1c(-c2ccc3nncn3c2)[nH]c2ccc(C3CCN(Cc4ncn(C)n4)CC3)cc12 [Example 23, 6-(3-isopropyl-5-(1-((1-methyl-1H-1,2,4-triazol-3-yl)methyl)piperidin-4-yl)-1H-indol-2-yl)-[1,2,4]triazolo[4,3-a]pyridine]	≥ 50000	54.9	375
CC(C)c1c(-c2ccc3nncn3c2)[nH]c2ccc(C3CCN(CC(=O)N(C)C)CC3)cc12 [Example 14, 2-(4-(2-([1,2,4]triazolo[4,3-a]pyridin-6-yl)-3-isopropyl-1H-indol-5-yl)piperidin-1-yl)-N,N-dimethylacetamide]	222	31.8	308
Cc1c(-c2[nH]c3ccc(C4CCN(Cc5ncn(C)n5)CC4)cc3c2C(C)C)cn2cnnc2c1Cl [Example 47, 8-chloro-6-(3-isopropyl-5-(1-((1-methyl-1H-1,2,4-triazol-3-yl)methyl)piperidin-4-yl)-1H-indol-2-yl)-7-methyl-[1,2,4]triazolo[4,3-a] pyridine]	2070	3.8	21.9
Cc1nnc2ccc(-c3[nH]c4ccc(C5CCN(Cc6ncn(C)n6)CC5)cc4c3C(C)C)cn12 [Example 22, 6-(3-isopropyl-5-(1-((1-methyl-1H-1,2,4-triazol-3-yl)methyl)piperidin-4-yl)-1H-indol-2-yl)-3-methyl-[1,2,4]triazolo[4,3-a]pyridine]	≥ 50000	136	17.6

More lines, now with the values ahead:

IC50 (human TLR9) [nM]	IC50 (human TLR7) [nM]	IC50 (human TLR8) [nM]	Structure (SMILES)
2080	0.7	20.5	COc1cc(-c2[nH]c3ccc(C4CCN(C5CCC(F)(F)CC5)CC4)cc3c2C(C)C)cn2cnnc12 [Example 95, 6-(5-(1-(4,4-difluorocyclohexyl)piperidin-4-yl)-3-isopropyl-1H-indol-2-yl)-8-methoxy-[1,2,4] triazolo[4,3-a]pyridine]
1070	83.5	10.8	Cc1c(-c2[nH]c3ccc(C4CCN(C5CCOCC5)CC4)cc3c2C(C)C)ccc2nncn12 [Example 70, 6-(3-isopropyl-5-(1-(tetrahydro-2H-pyran-4-yl)piperidin-4-yl)-1H-indol-2-yl)-5-methyl-[1,2,4]triazolo[4,3-a]pyridine]
14600	5.6	29.7	Cc1c(-c2[nH]c3ccc(C4CC(C)N(C5COC5)C(C)C4)cc3c2C(C)C)cn2cnnc2c1C (stereo not drawn) [Example 115, 6-(5-(2,6-dimethyl-1-(oxetan-3-yl)piperidin-4-yl)-3-isopropyl-1H-indol-2-yl)-7,8-dimethyl-[1,2,4]triazolo[4,3-a]pyridine]
382	43	39.1	Cc1nnc2ccc(-c3[nH]c4ccc(C5CCN(C(=O)CN(C)C)CC5)cc4c3C(C)C)cn12 [Example 106, 2-(dimethylamino)-1-(4-(3-isopropyl-2-(3-methyl-[1,2,4]triazolo[4,3-a]pyridin-6-yl)-1H-indol-5-yl)piperidin-1-yl)ethan-1-one]
562	20.4	1.9	Cc1cc(-c2[nH]c3ccc(C4CCN(C5CCOCC5)CC4)cc3c2C(C)C)cn2c(C)nnc12 [Example 73, 6-(3-isopropyl-5-(1-(tetrahydro-2H-pyran-4-yl)piperidin-4-yl)-1H-indol-2-yl)-3,8-dimethyl-[1,2,4]triazolo [4,3-a]pyridine]
376	1.2	35.8	COc1cc(-c2[nH]c3ccc(C4CCN(C)CC4)cc3c2C(C)C)cn2cnnc12 [Example 96, 6-(3-isopropyl-5-(1-methylpiperidin-4-yl)-1H-indol-2-yl)-8-methoxy-[1,2,4]triazolo[4,3-a)pyridine]
